What follows are molecules tested against human somatostatin receptor subtype 5 (Homo sapiens, UniProt P35346) (assay: cAMP assay for SST5R (inhibition of cAMP via human SST5 receptor)). Details: not given.
Chain of human somatostatin receptor subtype 5 (P35346 whole entry): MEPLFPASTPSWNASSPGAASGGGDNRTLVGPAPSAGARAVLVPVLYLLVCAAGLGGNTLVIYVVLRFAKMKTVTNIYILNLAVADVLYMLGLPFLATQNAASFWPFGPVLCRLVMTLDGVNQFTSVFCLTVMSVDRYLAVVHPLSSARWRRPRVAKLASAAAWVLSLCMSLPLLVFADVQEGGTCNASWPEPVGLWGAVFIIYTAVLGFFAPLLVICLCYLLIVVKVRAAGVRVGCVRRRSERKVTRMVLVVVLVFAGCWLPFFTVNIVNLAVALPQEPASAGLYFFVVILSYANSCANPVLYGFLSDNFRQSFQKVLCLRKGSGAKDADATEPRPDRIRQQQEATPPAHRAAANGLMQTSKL

Row | SMILES | EC50
1 | Cc1cc(F)cc(-c2cncc(-c3nc4cccc(F)c4n3C)c2N2CC(CN)C2)c1 [Compound 1-25, 1-{1-[3-(7-Fluoro-1-methyl-1H-1,3-benzodiazol-2-yl)-5-(3-fluoro-5-methylphenyl)pyridin-4-yl]azetidin-3-yl}methanamine] | 10 to 100 nM
2 | CC(N)C1CN(c2c(-c3cc(F)cc(C(F)(F)F)c3)cncc2-c2nc3c(F)cc(F)cc3[nH]2)C1 (stereo not shown) [Compound 1-63, 1-{1-[3-(4,6-difluoro-1H-1,3-benzodiazol-2-yl)-5-[3-fluoro-5-(trifluoromethyl)phenyl]pyridin-4-yl]azetidin-3-yl}ethan-1-amine] | < 10 nM
3 | N#Cc1cc(-c2cncc(-c3nc4cccc(F)c4[nH]3)c2N2CC[C@H](N)C2)ccc1O [Compound 2-36, 5-{4-[(3S)-3-aminopyrrolidin-1-yl]-5-(4-fluoro-1H-1,3-benzodiazol-2-yl)pyridin-3-yl}-2-hydroxybenzonitrile] | 100 to 1000 nM
4 | COc1ccc(-c2cncc(-c3nc4c(C#N)ccnc4[nH]3)c2N2CC[C@](C)(N)C2)cc1C#N [Compound 2-179, 2-{4-[(3S)-3-mino-3-methylpyrrolidin-1-yl]-5-(3-cyano-4-methoxyphenyl)pyridin-3-yl}-1H-imidazo[4,5-b]pyridine-7-carbonitrile] | 10 to 100 nM
5 | Cc1ccnc2nc(-c3cncc(-c4ccc(F)c(C#N)c4)c3N3CCC(C)(N)C3)[nH]c12 (stereo not shown) [Compound 2-119, 5-[4-(3-amino-3-methylpyrrolidin-1-yl)-5-{7-methyl-1H-imidazo[4,5-b]pyridin-2-yl}pyridin-3-yl]-2-fluorobenzonitrile] | < 10 nM
6 | CO/N=C/c1cccc(-c2cncc(-c3nc4cccc(F)c4[nH]3)c2N2CC[C@H](N)C2)c1 [Compound 2-12, (3S)-1-[3-(4-fluoro-1H-1,3-benzodiazol-2-yl)-5-{3-[(methoxyimino)methyl]phenyl}pyridin-4-yl]pyrrolidin-3-amine] | 10 to 100 nM
7 | NC(=O)c1cccc(-c2cncc(-c3nc4cccc(F)c4[nH]3)c2N2CCC(N)(C(F)(F)F)C2)c1 (stereo not shown) [Compound 2-64, 3-{4-[3-amino-3-(trifluoromethyl)pyrrolidin-1-yl]-5-(4-fluoro-1H-1,3-benzodiazol-2-yl)pyridin-3-yl}benzamide] | > 1000 nM
8 | Cc1cccc2nc(-c3cncc(-c4cc(F)c(F)c(C(=O)O)c4)c3N3CCC(C)(N)C3)[nH]c12 (stereo not shown) [Compound 2-126, 5-[4-(3-amino-3-methylpyrrolidin-1-yl)-5-(4-methyl-1H-1,3-benzodiazol-2-yl)pyridin-3-yl]-2,3-difluorobenzoic acid] | > 1000 nM
9 | Cc1cccc2nc(-c3cncc(-c4cc(F)cc(C#N)c4)c3N3CC[C@](N)(CO)C3)[nH]c12 [Compound 2-136, 3-{4-[(3R)-3-amino-3-(hydroxymethyl)pyrrolidin-1-yl]-5-(4-methyl-1H-1,3-benzodiazol-2-yl)pyridin-3-yl}-5-fluorobenzonitrile] | 10 to 100 nM
10 | NCC1CN(c2c(-c3ccc4cc[nH]c4c3)cncc2-c2nc3cc(F)cc(F)c3[nH]2)C1 [Compound 1-35, 1-{1-[3-(4,6-difluoro-1H-1,3-benzodiazol-2-yl)-5-(1H-indol-6-yl)pyridin-4-yl]azetidin-3-yl}methanamine] | > 1000 nM
11 | CS(=O)(=O)c1cc(F)cc(-c2cncc(-c3nc4cccc(F)c4[nH]3)c2N2CC[C@H](N)C2)c1 [Compound 2-92, (3S)-1-[3-(4-fluoro-1H-1,3-benzodiazol-2-yl)-5-(3-fluoro-5-methanesulfonylphenyl)pyridin-4-yl]pyrrolidin-3-amine] | 10 to 100 nM
12 | CC1(N)CCN(c2c(-c3cccc(-n4ccnc4)c3)cncc2-c2nc3cccc(F)c3[nH]2)C1 (stereo not shown) [Compound 2-53, 1-[3-(4-fluoro-1H-1,3-benzodiazol-2-yl)-5-[3-(1H-imidazol-1-yl)phenyl]pyridin-4-yl]-3-methylpyrrolidin-3-amine] | 10 to 100 nM
13 | Cc1nccc2nc(-c3cncc(-c4ccc(F)c(C#N)c4)c3N3CCC(C)(N)C3)[nH]c12 (stereo not shown) [Compound 2-159, 5-[4-(3-amino-3-methylpyrrolidin-1-yl)-5-{4-methyl-3H-imidazo[4,5-c]pyridin-2-yl}pyridin-3-yl]-2-fluorobenzonitrile] | < 10 nM
14 | COc1ccc2nc(-c3cncc(-c4cc(F)cc(Cl)c4)c3N3CC[C@H](N)C3)[nH]c2c1 [Compound 2-104, (3S)-1-[3-(3-chloro-5-fluorophenyl)-5-(5-methoxy-1H-1,3-benzodiazol-2-yl)pyridin-4-yl]pyrrolidin-3-amine] | 10 to 100 nM
15 | CNC(=O)c1cccc2nc(-c3cncc(-c4cccc(C#N)c4)c3N3CC[C@H](N)C3)[nH]c12 [Compound 2-90, 2-{4-[(3S)-3-aminopyrrolidin-1-yl]-5-(3-cyanophenyl)pyridin-3-yl}-N-methyl-1H-1,3-benzodiazole-4-carboxamide] | > 1000 nM

Next, values leading:

Row | EC50 | SMILES
16 | > 1000 nM | N#Cc1cccc(-c2cncc(-c3nc4c(F)cccc4[nH]3)c2N2C[C@@H](N)[C@H](C(N)=O)C2)c1 (racemic) [Compound 2-69, trans-4-amino-1-[3-(3-cyanophenyl)-5-(4-fluoro-1H-1,3-benzodiazol-2-yl)pyridin-4-yl]pyrrolidine-3-carboxamide]
17 | < 10 nM | Cc1cccc2c1nc(-c1cncc(-c3ccnc(C#N)c3)c1N1CC[C@](C)(N)C1)n2C [Compound 2-152, 4-[(3S)-3-amino-3-methylpyrrolidin-1-yl]-5-(1,4-dimethyl-1H-1,3-benzodiazol-2-yl)-[3,4′-bipyridine]-2′-carbonitrile]
18 | 10 to 100 nM | Cc1ccnc2nc(-c3cncc(-c4ccc(F)c(C#N)c4)c3N3CC[C@H](N)C3)[nH]c12 [Compound 2-50, 5-{4-[(3S)-3-aminopyrrolidin-1-yl]-5-{7-methyl-1H-imidazo[4,5-b]pyridin-2-yl}pyridin-3-yl}-2-fluorobenzonitrile]
19 | < 10 nM | NCC1CN(c2c(-c3cc(F)cc(F)c3)cncc2-c2nc3cc(F)cc(F)c3[nH]2)C1 [Compound 1-21, 1-{1-[3-(4,6-difluoro-1H-1,3-benzodiazol-2-yl)-5-(3,5-difluorophenyl)pyridin-4-yl]azetidin-3-yl}methanamine]
20 | 100 to 1000 nM | Cc1cncc(-c2cncc(-c3nc4cc(F)cc(F)c4[nH]3)c2N2CC(CN)C2)c1 [Compound 1-32, 1-{1-[5-(4,6-difluoro-1H-1,3-benzodiazol-2-yl)-5′-methyl-[3,3′-bipyridin]-4-yl]azetidin-3-yl}methanamine]
21 | < 10 nM | COc1cc(F)cc(-c2cncc(-c3nc4cc(F)cc(F)c4[nH]3)c2N2CC(CN)C2)c1 [Compound 1-58, 1-{1-[3-(4,6-difluoro-1H-1,3-benzodiazol-2-yl)-5-(3-fluoro-5-methoxyphenyl)pyridin-4-yl]azetidin-3-yl}methanamine]
22 | < 10 nM | Cn1c(-c2cncc(-c3ccc(F)c(C#N)c3)c2N2CC[C@H](N)C2)nc2cccc(Cl)c21 [Compound 2-133, 5-{4-[(3S)-3-aminopyrrolidin-1-yl]-5-(7-chloro-1-methyl-1H-1,3-benzodiazol-2-yl)pyridin-3-yl}-2-fluorobenzonitrile]

Same assay, conditions: SST5 over SST2, class symbols

Row | Fold selectivity for SST5 vs SST2 | SMILES
23 | ++ (++=100 to 499) | Cc1ccnc2nc(-c3cncc(-c4ccc(F)c(C#N)c4)c3N3CCC(C)(N)C3)[nH]c12 (stereo not shown) [Compound 2-119, 5-[4-(3-amino-3-methylpyrrolidin-1-yl)-5-{7-methyl-1H-imidazo[4,5-b]pyridin-2-yl}pyridin-3-yl]-2-fluorobenzonitrile]

Same assay, conditions: SST5 over SST2, given as number (comparison compounds)

Row | Fold selectivity for SST5 vs SST2 | SMILES
24 | 0.00004 | COc1cc(Cl)cc2[nH]c(-c3cncc(-c4cc(C)cc(F)c4)c3N3CCC(N)CC3)nc12

Same assay, conditions: read-out: SST5 potency; inhibition of cAMP via human SST5 receptor; Table B

Row | EC50 | SMILES
25 | < 10 nM | Cc1ccnc2nc(-c3cncc(-c4ccc(F)c(C#N)c4)c3N3CCC(C)(N)C3)[nH]c12 (stereo not shown) [Compound 2-119, 5-[4-(3-amino-3-methylpyrrolidin-1-yl)-5-{7-methyl-1H-imidazo[4,5-b]pyridin-2-yl}pyridin-3-yl]-2-fluorobenzonitrile]

Source: patent US11608335B2, “Somatostatin modulators and uses thereof” (CRINETICS PHARMACEUTICALS, INC., priority 2018, dated 2023)
